US9586951B2 (FUJIFILM Corporation, priority 2013, dated 2017)

What follows are compounds tested against T1, ATM (Homo sapiens, UniProt Q13315) (assay: ATM inhibition test (phosphorylation of Chk2 generated by ionizing radiation, AlphaScreen SureFire)). Conditions: phosphorylated Chk2 in NCI-H460 cells, ionizing radiation 8Gy, 1 hour after test compound treatment; read-out: ATM inhibitory activity.
T1 construct: detecting phosphorylation of Chk2 in a human non-small cell lung cancer cell line NCI-H460 (ATCC company); host or cells: NCI-H460 human non-small cell lung cancer cells
Assay type: cell-based
Method: ATM inhibitory effects of a test compound were measured by detecting phosphorylation of Chk2 in a human non-small cell lung cancer cell line NCI-H460 (ATCC company). The level of phosphorylated Chk2 generated by an ionizing radiation was measured using AlphaScreen SureFire (TGR Biosciences).
The cells were seeded by 40000 cells per well in 96-well CellBIND® plates (Corning International Inc.), and incubated at 37° C. overnight in 5% CO2. […] 1 hour after a test compound treatment, half of the plates were irradiated with ionizing radiation 8Gy (Faxitron Bioptics, LLC, RX-650 type). The plates irradiated with ionizing radiation and the plates not being irradiated with ionizing radiation were incubated at 37° C. for 1 hour in 5% CO2. […] Subsequent operations were performed according to the instruction book of AlphaScreen SureFire. […] The inhibition ratio was calculated by the following equation. Inhibition ratio (%)=((signal of drug untreated wells in the plates irradiated with ionizing radiation−signal of drug treated wells in the plates irradiated with ionizing radiation)/(signal of drug untreated wells in the plates irradiated with ionizing radiation−signal of drug untreated wells in the plates not being irradiated with ionizing radiation))×100

T1 sequence (Q13315 whole entry): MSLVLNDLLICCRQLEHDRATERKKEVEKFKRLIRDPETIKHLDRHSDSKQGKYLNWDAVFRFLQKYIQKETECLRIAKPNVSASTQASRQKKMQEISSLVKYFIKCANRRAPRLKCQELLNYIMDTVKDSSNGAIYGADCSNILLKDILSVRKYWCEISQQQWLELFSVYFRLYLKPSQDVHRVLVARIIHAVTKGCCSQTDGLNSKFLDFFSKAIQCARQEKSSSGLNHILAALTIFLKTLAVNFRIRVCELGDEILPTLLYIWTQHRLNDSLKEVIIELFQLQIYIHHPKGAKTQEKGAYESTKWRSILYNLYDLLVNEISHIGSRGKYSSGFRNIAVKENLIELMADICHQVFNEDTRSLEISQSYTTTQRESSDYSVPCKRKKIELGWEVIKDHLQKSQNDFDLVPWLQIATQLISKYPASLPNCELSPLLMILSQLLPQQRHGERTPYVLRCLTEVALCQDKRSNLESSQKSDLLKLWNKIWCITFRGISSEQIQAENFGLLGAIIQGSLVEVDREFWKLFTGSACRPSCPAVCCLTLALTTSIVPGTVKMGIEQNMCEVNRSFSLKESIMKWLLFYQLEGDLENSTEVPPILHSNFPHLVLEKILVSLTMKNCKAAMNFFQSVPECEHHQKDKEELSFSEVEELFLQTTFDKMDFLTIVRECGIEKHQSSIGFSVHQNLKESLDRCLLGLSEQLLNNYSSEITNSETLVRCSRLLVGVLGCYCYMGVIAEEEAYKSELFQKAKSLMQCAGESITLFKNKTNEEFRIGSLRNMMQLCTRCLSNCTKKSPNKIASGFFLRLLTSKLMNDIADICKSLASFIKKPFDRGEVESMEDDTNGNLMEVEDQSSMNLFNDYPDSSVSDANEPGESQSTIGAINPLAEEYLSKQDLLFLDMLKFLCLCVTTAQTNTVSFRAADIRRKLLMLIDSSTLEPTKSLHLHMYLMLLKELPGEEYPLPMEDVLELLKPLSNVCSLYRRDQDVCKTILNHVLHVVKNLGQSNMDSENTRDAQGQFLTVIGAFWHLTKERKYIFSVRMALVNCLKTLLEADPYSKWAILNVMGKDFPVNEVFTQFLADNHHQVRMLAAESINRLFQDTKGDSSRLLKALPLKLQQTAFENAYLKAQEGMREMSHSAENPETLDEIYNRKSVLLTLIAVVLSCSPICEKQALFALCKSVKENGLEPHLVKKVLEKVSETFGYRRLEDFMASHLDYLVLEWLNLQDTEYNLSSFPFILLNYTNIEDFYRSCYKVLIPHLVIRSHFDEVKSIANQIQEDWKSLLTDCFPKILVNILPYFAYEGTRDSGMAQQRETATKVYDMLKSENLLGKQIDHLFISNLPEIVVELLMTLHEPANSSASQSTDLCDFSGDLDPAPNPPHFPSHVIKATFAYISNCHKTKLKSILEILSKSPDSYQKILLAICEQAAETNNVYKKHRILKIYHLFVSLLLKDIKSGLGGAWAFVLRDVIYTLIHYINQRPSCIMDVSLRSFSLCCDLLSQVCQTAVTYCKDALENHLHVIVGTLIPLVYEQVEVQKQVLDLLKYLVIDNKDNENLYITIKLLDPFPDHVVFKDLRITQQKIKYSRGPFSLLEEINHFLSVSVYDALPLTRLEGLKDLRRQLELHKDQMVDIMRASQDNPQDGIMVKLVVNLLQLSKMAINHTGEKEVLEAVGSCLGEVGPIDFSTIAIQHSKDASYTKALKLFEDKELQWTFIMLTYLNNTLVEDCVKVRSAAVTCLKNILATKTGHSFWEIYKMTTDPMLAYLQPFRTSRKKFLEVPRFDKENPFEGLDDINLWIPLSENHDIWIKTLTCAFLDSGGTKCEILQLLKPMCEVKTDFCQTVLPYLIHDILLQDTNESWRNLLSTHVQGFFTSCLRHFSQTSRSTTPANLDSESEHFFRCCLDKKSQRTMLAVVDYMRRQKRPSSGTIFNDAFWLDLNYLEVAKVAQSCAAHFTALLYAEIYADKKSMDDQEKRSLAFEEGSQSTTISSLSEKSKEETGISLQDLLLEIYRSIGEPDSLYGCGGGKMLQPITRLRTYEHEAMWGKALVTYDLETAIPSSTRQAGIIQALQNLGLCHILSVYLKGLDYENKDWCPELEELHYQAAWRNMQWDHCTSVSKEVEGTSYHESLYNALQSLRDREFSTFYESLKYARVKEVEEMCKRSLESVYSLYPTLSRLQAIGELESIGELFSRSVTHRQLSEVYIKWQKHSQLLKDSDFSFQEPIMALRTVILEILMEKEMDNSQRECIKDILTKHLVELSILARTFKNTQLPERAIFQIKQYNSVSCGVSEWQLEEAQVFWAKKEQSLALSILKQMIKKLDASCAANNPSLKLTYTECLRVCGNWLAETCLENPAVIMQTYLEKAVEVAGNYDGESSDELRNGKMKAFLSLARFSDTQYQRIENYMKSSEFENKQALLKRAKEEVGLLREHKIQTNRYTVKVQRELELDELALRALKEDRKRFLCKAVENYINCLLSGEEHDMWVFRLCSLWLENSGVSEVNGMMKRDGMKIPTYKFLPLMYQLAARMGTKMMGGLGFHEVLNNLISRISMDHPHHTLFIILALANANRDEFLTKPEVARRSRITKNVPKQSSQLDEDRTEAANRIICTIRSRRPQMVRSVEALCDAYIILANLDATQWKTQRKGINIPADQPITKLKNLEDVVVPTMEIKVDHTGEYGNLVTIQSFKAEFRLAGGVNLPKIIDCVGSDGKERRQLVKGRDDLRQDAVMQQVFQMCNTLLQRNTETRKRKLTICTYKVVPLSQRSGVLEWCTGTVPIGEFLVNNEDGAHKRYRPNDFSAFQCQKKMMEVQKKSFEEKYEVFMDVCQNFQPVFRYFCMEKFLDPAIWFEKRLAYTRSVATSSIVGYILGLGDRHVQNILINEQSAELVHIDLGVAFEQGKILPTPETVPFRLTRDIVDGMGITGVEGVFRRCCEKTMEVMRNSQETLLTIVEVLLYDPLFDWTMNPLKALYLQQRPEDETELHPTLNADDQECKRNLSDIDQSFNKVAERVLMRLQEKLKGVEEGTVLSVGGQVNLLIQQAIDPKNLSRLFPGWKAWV

Compared with Cc1nccnc1CNc1ccc2c(c1)Sc1cccc(-c3cc(N4CCOCC4)cc(=O)[nH]3)c1S2 [Example 1-12-61, 6-(7-(((3-Methylpyrazin-2-yl)methyl)amino)thianthren-1-yl)-4-morpholino pyridin-2 (1H)-one], O=c1cc(N2CCOCC2)cc(-c2cccc3c2Sc2ccc(NCc4cncc(-n5cccc5)c4)cc2S3)[nH]1 [Example 1-12-19, 6-(7-(((5-(1H-Pyrrol-1-yl)pyridin-3-yl)methyl)amino)thianthren-1-yl)-4-morpholino pyridin-2(1H)-one] is lower in IC50: 0.1 to 0.5 µM for the first, less than 0.1 µM for the second.

First: O=C(CNc1ccc2c(c1)Sc1cccc(-c3cc(N4CCOCC4)cc(=O)[nH]3)c1S2)N1CCCC1 [Example 1-18-1, 4-morpholino-6-(7-((2-oxo-2-(pyrrolidin-1-yl)ethyl)amino)thianthren-1-yl)pyridin-2(1H)-one]
Second: CC1CCCCN1CC(CO)Nc1ccc2c(c1)Sc1cccc(-c3cc(N4CCOCC4)cc(=O)[nH]3)c1S2 (single isomer, unassigned) [Example 1-37-7, 6-(7-((1-Hydroxy-3-(2-methylpiperidin-1-yl)propan-2-yl)amino)thianthren-1-yl)-4-morpholino pyridin-2(1H)-one]
The IC50 of the first is lower: 0.1 to 0.5 µM for the first, 0.5 to 2 µM for the second.

Nc1cccc2c1Sc1cccc(-c3cc(N4CCOCC4)cc(=O)[nH]3)c1O2 [Example 4-3, 6-(9-Aminophenoxathiin-4-yl)-4-morpholinopyridin-2(1H)-one] and COc1cnccc1CNc1ccc2c(c1)Sc1cccc(-c3cc(N4CCOCC4)cc(=O)[nH]3)c1O2 [Example 4-4-23, 6-(8-(((3-Methoxypyridin-4-yl)methyl)amino)phenoxathiin-4-yl)-4-morpholino pyridin-2(1H)-one] fall in the same range of IC50: 0.1 to 0.5 µM for the first, 0.1 to 0.5 µM for the second.

CC(Nc1ccc2c(c1)Cc1cccc(-c3cc(N4CCOCC4)cc(=O)[nH]3)c1O2)c1cnc(N(C)C)cn1 (stereo not shown) [Example 2-14-53, 6-(7-((1-(5-(Dimethylamino)pyrazin-2-yl)ethyl)amino)-9H-xanthen-4-yl)-4-morpholino pyridin-2(1H)-one] and CC(Nc1ccc2c(c1)Cc1cccc(-c3cc(N4CCOCC4)cc(=O)[nH]3)c1O2)c1nccc(CF)n1 (single isomer, unassigned) [Example 2-14-94-2, 6-(7-((1-(4-(fluoromethyl)pyrimidin-2-yl)ethyl)amino)-9H-xanthen-4-yl)-4-morpholinopyridin-2(1H)-one] fall in the same range of IC50: 0.1 to 0.5 µM for the first, 0.1 to 0.5 µM for the second.

N#CCN1CCC(Nc2ccc3c(c2)Cc2cccc(-c4cc(N5CCOCC5)cc(=O)[nH]4)c2O3)CC1 [Example 2-30-1, 2-(4-((5-(4-morpholino-6-oxo-1,6-dihydropyridin-2-yl)-9H-xanthen-2-yl)amino)piperidin-1-yl)acetonitrile] and O=c1cc(N2CCOCC2)cc(-c2cccc3c2Oc2ccc(NC4CCN(Cc5cc(C6CC6)ccn5)CC4)cc2C3)[nH]1 [Example 2-28-30, 6-(7-((1-((4-Cyclopropylpyridin-2-yl)methyl)piperidin-4-yl)amino)-9H-xanthen-4-yl)-4-morpholino pyridin-2(1H)-one] fall in the same range of IC50: 0.1 to 0.5 µM for the first, 0.1 to 0.5 µM for the second.

First: CC(CCN1CCN(C)CC1)Nc1ccc2c(c1)Sc1cccc(-c3cc(N4CCOCC4)cc(=O)[nH]3)c1S2 (stereo not shown) [Example 1-42-2, 6-(7-((4-(4-Methylpiperazin-1-yl)butan-2-yl)amino)thianthren-1-yl)-4-morpholino pyridin-2(1H)-one]
Second: CC(CN1CCNCC1)Nc1ccc2c(c1)Sc1cccc(-c3cc(N4CCOCC4)cc(=O)[nH]3)c1S2 (stereo not shown) [Example 1-14, 4-Morpholino-6-(7-((1-(piperazin-1-yl)propan-2-yl)amino)thianthren-1-yl)pyridin-2(1H)-one]
The IC50 of the first is lower: 0.1 to 0.5 µM for the first, 0.5 to 2 µM for the second.

O=c1cc(N2CCOCC2)cc(-c2nccc3c2Oc2ccc(NCc4cccc(Cl)n4)cc2C3)[nH]1 [Example 2-41-8, 6-(7-(((6-Chloropyridin-2-yl)methlyl)anlino)-5H-chromeno [2,3-c]pyridin-1-yl)-4-morpholino pyridin-2(1H)-one] and O=c1cc(N2CCOCC2)cc(-c2nccc3c2Oc2ccc(NCc4cncc(Cl)c4)cc2C3)[nH]1 [Example 2-41-9, 6-(7-(((5-Chloropyridin-3-yl)methyl)amino)-5H-chromeno [2,3-c]pyridin-1-yl)-4-morpholino pyridin-2(1H)-one] fall in the same range of IC50: 0.1 to 0.5 µM for the first, 0.1 to 0.5 µM for the second.

O=c1cc(N2CCOCC2)cc(-c2cccc3c2Sc2ccc(NC4CCN(C5CCOC5)C4)cc2S3)[nH]1 (stereo not shown) [Example 1-24-14, 4-Morpholino-6-(7-((1-(tetrahydrofuran-3-yl)pyrrolidin-3-yl)amino)thianthren-1-yl)pyridin-2 (1H)-one] and CN(C)C1CCC(Nc2ccc3c(c2)Sc2cccc(-c4cc(N5CCOCC5)cc(=O)[nH]4)c2S3)CC1 (stereo not shown) [Example 1-36-2, 6-(7-((4-(Dimethylamino)cyclohexyl)amino)thianthren-1-yl)-4-morpholinopyridin-2(1H)-one] fall in the same range of IC50: 0.1 to 0.5 µM for the first, 0.1 to 0.5 µM for the second.

COc1cccc(CCN2CCC(Nc3ccc4c(c3)Cc3cccc(-c5cc(N6CCOCC6)cc(=O)[nH]5)c3O4)CC2)c1 [Example 2-30-11, 6-(7-((1-(3-Methoxyphenethyl)piperidin-4-yl)amino)-9H-xanthen-4-yl)-4-morpholino pyridin-2 (1H)-one] and CC(=O)Nc1ccc(CCN2CCC(Nc3ccc4c(c3)Cc3cccc(-c5cc(N6CCOCC6)cc(=O)[nH]5)c3O4)CC2)cc1 [Example 2-32, N-(4-(2-(4-((5-(4-morpholino-6-oxo-1,6-dihydropyridin-2-yl)-9H-xanthen-2-yl)amino)piperidin-1-yl)ethyl)phenyl)acetamide] fall in the same range of IC50: 0.1 to 0.5 µM for the first, 0.1 to 0.5 µM for the second.

First: Cc1ccc(C(CCN(C)CCO)Nc2ccc3c(c2)Sc2cccc(-c4cc(N5CCOCC5)cc(=O)[nH]4)c2S3)nc1 (single isomer, unassigned) [Example 10-4-1, 6-(7-((3-((2-Hydroxyethyl)(methyl)amino)-1-(5-methylpyridin-2-yl)propyl)amino)thianthren-1-yl)-4-morpholinopyridin-2(1H)-one]
Second: Cc1cnc(C(CCN(C)CCO)Nc2ccc3c(c2)Sc2cccc(-c4cc(N5CCOCC5)cc(=O)[nH]4)c2S3)cn1 (single isomer, unassigned) [Example 10-4-2, 6-(7-((3-((2-Hydroxyethyl)(methyl)amino)-1-(5-methylpyrazin-2-yl)propyl)amino)thianthren-1-yl)-4-morpholinopyridin-2(1H)-one]
The IC50 of the first is lower: less than 0.1 µM for the first, 0.1 to 0.5 µM for the second.

N#Cc1cccc(CNc2cccc3c2Cc2cccc(-c4cc(N5CCOCC5)cc(=O)[nH]4)c2O3)c1 [Example 2-56-4, 3-(((5-(4-Morpholino-6-oxo-1,6-dihydropyridin-2-yl)-9H-xanthen-1-yl)amino)methyl)benzonitrile] and CC(C)Oc1cncc(CNc2ccc3c(c2)Cc2cccc(-c4cc(N5CCOCC5)cc(=O)[nH]4)c2O3)c1 [Example 2-2-65, 6-(7-(((5-Isopropoxypyridin-3-yl)methyl)amino)-9H-xanthen-4-yl)-4-morpholino pyridin-2(1H)-one] fall in the same range of IC50: 0.1 to 0.5 µM for the first, 0.1 to 0.5 µM for the second.

O=c1cc(N2CCOCC2)cc(-c2cccc3c2Oc2ccc(NCc4cncc(C5CC5)c4)cc2S3)[nH]1 [Example 4-8-7, 6-(8-(((5-Cyclopropylpyridin-3-yl)methyl)amino)phenoxathiin-4-yl)-4-morpholino pyridin-2(1H)-one] and O=c1cc(N2CCOCC2)cc(-c2cccc3c2Oc2ccc(NC4CCN(CCc5ccccc5)C4)cc2C3)[nH]1 (stereo not shown) [Example 2-19-7, 4-Morpholino-6-(7-((1-phenethylpyrrolidin-3-yl)amino)-9H-xanthen-4-yl)pyridin-2(1H)-one] fall in the same range of IC50: 0.1 to 0.5 µM for the first, 0.1 to 0.5 µM for the second.

O=c1cc(N2CCOCC2)cc(-c2cccc3c2Sc2ccc(N[C@H](CCN4CCOCC4)CN4CCOCC4)cc2S3)[nH]1 [Example 8-1, (R)-6-(7-((1,4-dimorpholinobutan-2-yl)amino)thianthren-1-yl)-4-morpholinopyridin-2(1H)-one] and CCC(C(=O)Nc1ccc2c(c1)Sc1cccc(-c3cc(N4CCOCC4)cc(=O)[nH]3)c1S2)N1CCOCC1 (stereo not shown) [Example 1-6-2, 2-Morpholino-N-(6-(4-morpholino-6-oxo-1,6-dihydropyridin-2-yl)thianthren-2-yl)butanamide] fall in the same range of IC50: 0.1 to 0.5 µM for the first, 0.1 to 0.5 µM for the second.

CC(Nc1ccc2c(c1)Sc1cccc(-c3cc(N4CCOCC4)cc(=O)[nH]3)c1S2)c1ncc(CN2CCCC2)cn1 (stereo not shown) [Example 1-12-94, 4-Morpholino-6-(7-((1-(5-(pyrrolidin-1-ylmethyl)pyrimidin-2-yl)ethyl)amino)thianthren-1-yl)pyridin-2 (1H)-one] and Cc1ccc(C(Nc2ccc3c(c2)Sc2cccc(-c4cc(N5CCOCC5)cc(=O)[nH]4)c2S3)[C@H]2CCCN2C)nc1 (single isomer, unassigned) [Example 1-56-4] fall in the same range of IC50: 0.1 to 0.5 µM for the first, 0.1 to 0.5 µM for the second.

CC(CN1CCN(c2ccncc2)CC1)Nc1ccc2c(c1)Sc1cccc(-c3cc(N4CCOCC4)cc(=O)[nH]3)c1S2 (stereo not shown) [Example 1-13-16, 4-Morpholino-6-(7-((1-(4-(pyridin-4-yl)piperazin-1-yl)propan-2-yl)amino)thianthren-1-yl)pyridin-2 (1H)-one] and CC(CN1CCN(C)CC1)Nc1ccc2c(c1)Sc1cccc(-c3cc(=O)cc(N4CCOCC4)o3)c1S2 (stereo not shown) [Example 11-4, 2-(7-((1-(4-Methylpiperazin-1-yl)propan-2-yl)amino)thianthren-1-yl)-6-morpholino-4H-pyran-4-one] fall in the same range of IC50: 0.1 to 0.5 µM for the first, 0.1 to 0.5 µM for the second.

Compound CC(Nc1ccc2c(c1)Sc1cccc(-c3cc(N4CCOCC4)cc(=O)[nH]3)c1S2)C(=O)N1CCCC1C (stereo not shown) [Example 1-18-6] has an IC50 of 0.1 to 0.5 µM.
